Assay [1] concerns the target T1, Alpha-2A adrenergic receptor (Homo sapiens, UniProt P08913).
T1 sequence (P08913 whole entry): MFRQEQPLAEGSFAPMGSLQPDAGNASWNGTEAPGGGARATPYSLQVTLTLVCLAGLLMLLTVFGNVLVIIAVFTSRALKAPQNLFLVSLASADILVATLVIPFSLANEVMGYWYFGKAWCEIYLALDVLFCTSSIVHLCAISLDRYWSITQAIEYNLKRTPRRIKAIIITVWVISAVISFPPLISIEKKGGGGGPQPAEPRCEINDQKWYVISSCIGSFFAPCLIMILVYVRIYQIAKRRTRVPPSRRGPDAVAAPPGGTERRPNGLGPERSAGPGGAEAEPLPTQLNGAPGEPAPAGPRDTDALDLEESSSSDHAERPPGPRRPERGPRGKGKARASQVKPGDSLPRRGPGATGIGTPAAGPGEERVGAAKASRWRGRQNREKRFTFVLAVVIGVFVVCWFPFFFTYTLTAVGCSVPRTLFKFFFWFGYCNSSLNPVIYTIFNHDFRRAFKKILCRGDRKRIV

Assay [2] concerns the target D(1A) dopamine receptor (Homo sapiens, UniProt P21728).
Assay [3] has as its target D(3) dopamine receptor (Homo sapiens, UniProt P35462).
The target in assay [4] is Histamine H3 receptor (Homo sapiens, UniProt Q9Y5N1).
Assay [5] addresses 3',5'-cyclic-AMP phosphodiesterase 4A (Homo sapiens, UniProt P27815). Type of assay: functional.
Assay [6] concerns the target Prostaglandin G/H synthase 1 (Homo sapiens, UniProt P23219). The class given is functional.
The target of assay [7] is T2, Thromboxane A2 receptor (Homo sapiens, UniProt P21731).
T2 sequence (P21731 whole entry): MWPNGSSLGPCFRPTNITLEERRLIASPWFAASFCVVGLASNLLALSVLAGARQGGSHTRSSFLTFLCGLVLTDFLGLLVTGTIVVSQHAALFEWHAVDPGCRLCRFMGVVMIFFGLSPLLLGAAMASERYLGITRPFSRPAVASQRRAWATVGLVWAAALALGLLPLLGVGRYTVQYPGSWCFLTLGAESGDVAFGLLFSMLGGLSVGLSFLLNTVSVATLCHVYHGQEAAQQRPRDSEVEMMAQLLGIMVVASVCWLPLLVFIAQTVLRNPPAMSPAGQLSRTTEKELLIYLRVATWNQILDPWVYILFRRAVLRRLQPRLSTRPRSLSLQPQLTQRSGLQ
The class given is functional, cell-based.

In assay [8] the target is T2, Thromboxane A2 receptor. Type of assay: functional, cell-based. The source holds these as a separate data set.
Assay [9] concerns the target Glutamate receptor ionotropic, NMDA 1 (Rattus norvegicus, UniProt P35439).
For assay [10], the target named is Kappa-type opioid receptor (Homo sapiens, UniProt P41145).
In assay [11] the target is T3, B2 bradykinin receptor (Homo sapiens, UniProt P30411).
T3 sequence (P30411 whole entry): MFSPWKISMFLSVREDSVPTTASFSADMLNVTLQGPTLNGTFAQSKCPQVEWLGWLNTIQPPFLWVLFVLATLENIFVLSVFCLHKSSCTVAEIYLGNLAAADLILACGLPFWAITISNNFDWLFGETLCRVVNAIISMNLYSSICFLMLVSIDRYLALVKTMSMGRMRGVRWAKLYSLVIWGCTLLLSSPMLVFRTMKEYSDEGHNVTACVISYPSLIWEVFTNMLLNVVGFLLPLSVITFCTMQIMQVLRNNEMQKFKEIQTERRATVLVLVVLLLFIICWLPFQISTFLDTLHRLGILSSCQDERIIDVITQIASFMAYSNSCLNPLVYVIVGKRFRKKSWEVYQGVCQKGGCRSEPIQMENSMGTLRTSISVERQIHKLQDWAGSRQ

Assay [12] addresses T4, Estrogen receptor (Homo sapiens, UniProt P03372).
T4 sequence (P03372 whole entry): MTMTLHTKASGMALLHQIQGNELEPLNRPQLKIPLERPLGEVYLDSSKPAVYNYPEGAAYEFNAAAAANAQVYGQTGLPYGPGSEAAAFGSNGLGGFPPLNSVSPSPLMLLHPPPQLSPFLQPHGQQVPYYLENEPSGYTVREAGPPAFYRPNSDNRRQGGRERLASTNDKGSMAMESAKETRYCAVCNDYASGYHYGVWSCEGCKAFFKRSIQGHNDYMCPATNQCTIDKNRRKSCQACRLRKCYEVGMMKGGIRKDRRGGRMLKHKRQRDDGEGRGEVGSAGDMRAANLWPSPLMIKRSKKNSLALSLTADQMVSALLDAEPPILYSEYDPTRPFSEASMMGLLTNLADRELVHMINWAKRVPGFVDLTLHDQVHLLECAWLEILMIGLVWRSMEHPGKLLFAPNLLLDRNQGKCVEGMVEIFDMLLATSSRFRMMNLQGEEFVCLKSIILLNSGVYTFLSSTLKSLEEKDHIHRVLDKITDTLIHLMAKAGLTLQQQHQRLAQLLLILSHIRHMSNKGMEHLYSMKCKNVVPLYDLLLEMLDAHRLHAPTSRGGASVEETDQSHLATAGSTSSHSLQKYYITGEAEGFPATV
Note: assay procedure not described here.

D(1A) dopamine receptor, sequence (P21728 whole entry): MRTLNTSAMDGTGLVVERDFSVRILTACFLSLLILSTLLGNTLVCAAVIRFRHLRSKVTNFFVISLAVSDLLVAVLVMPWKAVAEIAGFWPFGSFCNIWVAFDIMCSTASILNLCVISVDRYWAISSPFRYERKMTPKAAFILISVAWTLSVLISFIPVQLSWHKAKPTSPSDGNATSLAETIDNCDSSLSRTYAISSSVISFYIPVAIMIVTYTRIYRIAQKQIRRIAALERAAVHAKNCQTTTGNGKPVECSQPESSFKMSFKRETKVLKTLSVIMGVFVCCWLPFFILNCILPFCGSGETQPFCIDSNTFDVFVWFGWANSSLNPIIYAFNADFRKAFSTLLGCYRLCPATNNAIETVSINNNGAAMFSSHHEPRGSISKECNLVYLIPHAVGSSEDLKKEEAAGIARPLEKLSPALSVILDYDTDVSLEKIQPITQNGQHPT
Prostaglandin G/H synthase 1, sequence (P23219 whole entry): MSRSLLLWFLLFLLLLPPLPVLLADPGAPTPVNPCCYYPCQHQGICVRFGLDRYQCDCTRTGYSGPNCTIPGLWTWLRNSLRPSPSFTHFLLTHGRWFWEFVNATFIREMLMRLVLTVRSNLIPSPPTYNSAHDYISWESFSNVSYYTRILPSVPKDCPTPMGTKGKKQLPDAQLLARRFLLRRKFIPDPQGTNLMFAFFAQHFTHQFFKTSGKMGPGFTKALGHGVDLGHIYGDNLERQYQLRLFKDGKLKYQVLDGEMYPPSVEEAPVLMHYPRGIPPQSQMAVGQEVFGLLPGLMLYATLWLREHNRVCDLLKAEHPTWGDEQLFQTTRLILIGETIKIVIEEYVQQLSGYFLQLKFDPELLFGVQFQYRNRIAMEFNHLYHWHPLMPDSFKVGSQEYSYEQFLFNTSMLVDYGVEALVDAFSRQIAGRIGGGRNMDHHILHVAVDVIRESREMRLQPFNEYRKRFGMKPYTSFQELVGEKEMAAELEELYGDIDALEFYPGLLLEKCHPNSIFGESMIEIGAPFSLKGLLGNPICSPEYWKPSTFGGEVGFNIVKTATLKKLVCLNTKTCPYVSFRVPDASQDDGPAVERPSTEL
D(3) dopamine receptor, sequence (P35462 whole entry): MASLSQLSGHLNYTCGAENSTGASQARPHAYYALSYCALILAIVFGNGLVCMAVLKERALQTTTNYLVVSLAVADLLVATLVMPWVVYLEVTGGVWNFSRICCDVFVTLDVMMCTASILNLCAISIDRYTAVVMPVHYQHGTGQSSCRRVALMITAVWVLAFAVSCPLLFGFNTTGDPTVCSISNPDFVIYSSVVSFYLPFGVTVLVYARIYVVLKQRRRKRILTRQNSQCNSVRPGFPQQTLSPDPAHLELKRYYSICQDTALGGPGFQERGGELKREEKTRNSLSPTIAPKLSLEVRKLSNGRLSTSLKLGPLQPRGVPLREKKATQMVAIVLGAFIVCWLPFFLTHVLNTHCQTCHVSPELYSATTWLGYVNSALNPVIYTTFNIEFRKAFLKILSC
Histamine H3 receptor, sequence (Q9Y5N1 whole entry): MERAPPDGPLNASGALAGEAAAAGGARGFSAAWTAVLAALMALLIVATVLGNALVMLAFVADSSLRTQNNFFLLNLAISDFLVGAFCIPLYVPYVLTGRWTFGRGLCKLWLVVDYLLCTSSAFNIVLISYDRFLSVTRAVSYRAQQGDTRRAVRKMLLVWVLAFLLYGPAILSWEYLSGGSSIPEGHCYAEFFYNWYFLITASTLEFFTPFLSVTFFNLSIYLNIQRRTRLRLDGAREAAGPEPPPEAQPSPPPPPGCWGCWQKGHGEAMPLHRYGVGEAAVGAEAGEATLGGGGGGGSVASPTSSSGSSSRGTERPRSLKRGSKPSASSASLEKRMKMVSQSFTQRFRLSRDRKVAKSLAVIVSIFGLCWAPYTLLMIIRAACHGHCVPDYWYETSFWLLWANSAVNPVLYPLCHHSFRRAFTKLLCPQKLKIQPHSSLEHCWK
3',5'-cyclic-AMP phosphodiesterase 4A, sequence (P27815 whole entry): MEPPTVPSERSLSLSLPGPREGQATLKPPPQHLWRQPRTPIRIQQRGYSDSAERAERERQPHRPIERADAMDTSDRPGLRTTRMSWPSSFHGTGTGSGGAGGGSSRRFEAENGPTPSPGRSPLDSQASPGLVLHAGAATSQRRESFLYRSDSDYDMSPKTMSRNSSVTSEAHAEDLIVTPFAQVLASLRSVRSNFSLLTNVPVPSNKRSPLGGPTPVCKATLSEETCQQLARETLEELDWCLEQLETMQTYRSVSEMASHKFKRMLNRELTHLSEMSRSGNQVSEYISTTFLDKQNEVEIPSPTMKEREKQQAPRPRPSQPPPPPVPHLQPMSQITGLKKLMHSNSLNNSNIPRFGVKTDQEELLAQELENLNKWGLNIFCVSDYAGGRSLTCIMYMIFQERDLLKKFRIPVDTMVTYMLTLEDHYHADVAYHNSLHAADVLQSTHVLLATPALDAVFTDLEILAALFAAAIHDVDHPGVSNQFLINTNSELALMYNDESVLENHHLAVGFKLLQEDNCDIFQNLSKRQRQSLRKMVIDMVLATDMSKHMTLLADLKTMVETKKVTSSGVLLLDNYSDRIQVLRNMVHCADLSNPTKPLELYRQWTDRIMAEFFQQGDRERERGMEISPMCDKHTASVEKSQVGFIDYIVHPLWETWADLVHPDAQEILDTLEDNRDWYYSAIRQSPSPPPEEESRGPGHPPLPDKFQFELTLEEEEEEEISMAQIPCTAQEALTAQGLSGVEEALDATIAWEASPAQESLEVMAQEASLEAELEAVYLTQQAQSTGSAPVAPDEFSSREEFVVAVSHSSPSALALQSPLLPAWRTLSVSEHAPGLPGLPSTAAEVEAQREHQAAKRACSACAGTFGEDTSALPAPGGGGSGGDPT
Kappa-type opioid receptor, sequence (P41145 whole entry): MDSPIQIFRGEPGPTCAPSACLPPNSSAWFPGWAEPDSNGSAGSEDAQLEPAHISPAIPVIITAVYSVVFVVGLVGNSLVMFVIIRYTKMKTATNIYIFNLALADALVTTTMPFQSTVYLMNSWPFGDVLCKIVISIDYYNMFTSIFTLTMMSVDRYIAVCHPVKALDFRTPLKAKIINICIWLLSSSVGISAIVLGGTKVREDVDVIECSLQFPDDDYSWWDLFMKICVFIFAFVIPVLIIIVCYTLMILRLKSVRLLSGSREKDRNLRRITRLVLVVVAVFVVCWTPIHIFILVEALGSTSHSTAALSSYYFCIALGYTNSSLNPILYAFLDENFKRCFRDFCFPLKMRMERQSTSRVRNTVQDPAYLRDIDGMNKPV

Turning to `CC(=O)OC[C@H]1O[C@@H](n2ccc(=O)[nH]c2=O)[C@H](OC(C)=O)[C@@H]1OC(C)=O` [URIDINE TRIACETATE], the AC50 in assay [1], in assay [2], in assay [3], in [4], in [5] and in [6] was over 30 µM each time. Moreover, the AC50 in assay [7] and in [8] was over 30 µM in each case.
For `CCC(=O)c1c(O)cc(O)cc1O` [FLOPROPIONE], the AC50 in assay [1] was over 30 µM; in assay [2] it was over 30 µM; in [3], 12.1 µM; in [4], over 30 µM; in assay [5], over 30 µM; in [6], over 30 µM. Further, the AC50 in assay [7] and in assay [8] was over 30 µM throughout.
Take `O=C1c2c(O)c(=O)ccn2N([C@@H]2c3ccccc3SCc3c2ccc(F)c3F)[C@@H]2COCCN12` [BALOXAVIR]: the half-maximal activity concentration (AC50) in [1], in [2], in assay [3], in assay [4], in assay [5] and in [6] was over 30 µM in each case. In addition, the AC50 in assay [7] and in assay [8] was over 30 µM each time.
For `Cc1c(-c2ccccc2)oc2c(C(=O)OCCN3CCCCC3)cccc2c1=O` [FLAVOXATE], the AC50 in assay [1] was 13.9 µM; in assay [2], over 30 µM; in assay [3], 0.88 µM; in [4], 24.6 µM; in assay [5] it was 6.12 µM; in assay [6], over 30 µM. Further, the AC50 in assay [7] and in assay [8] was over 30 µM each time.
Turning to `CC(=O)OCC(=O)[C@@]1(O)CC[C@H]2[C@@H]3CCC4=CC(=O)CC[C@]4(C)[C@H]3C(=O)C[C@@]21C` [CORTISONE ACETATE], the concentration at half-maximal activity (AC50) in assay [9] and in assay [10] was over 30 µM throughout.
As for `CCOC(=O)N[C@@H]1CC[C@@H]2[C@@H](C1)C[C@H]1C(=O)O[C@H](C)[C@H]1[C@H]2/C=C/c1ccc(-c2cccc(F)c2)cn1` [VORAPAXAR], the concentration at half-maximal activity (AC50) in assay [1] is over 30 µM; in [2], over 30 µM; in [3], over 30 µM; in assay [4], over 10 µM; in assay [5], over 30 µM; in assay [6], over 30 µM. Also, the AC50 was over 30 µM in [7] and over 10 µM in assay [8].
Take `CC(=O)Oc1c(C)cc(OCC(O)CNC(C)C)c(C)c1C` (stereo not drawn) [METIPRANOLOL]: the AC50 in [1], in assay [2], in assay [3], in assay [4], in assay [5] and in assay [6] was over 30 µM throughout. Further, the AC50 in [7] and in [8] was over 30 µM in each case.
Turning to `CCN(CC)CCNC(=O)c1cc(Cl)c(N)cc1OC` [METOCLOPRAMIDE], the half-maximal activity concentration (AC50) in assay [11] was over 30 µM; in assay [12], over 30 µM; in assay [9] it was over 10 µM; in [10] it was over 10 µM.
As for `CN(C)CCCN1c2ccccc2CCc2ccc(Cl)cc21` [CLOMIPRAMINE], the AC50 was 3.63 µM in assay [1], 0.0393 µM in assay [3] and over 30 µM in assay [4].
Turning to `COC(=O)C1=C(C)NC(C)=C(C(=O)OCC(C)C)C1c1ccccc1[N+](=O)[O-]` (stereo not drawn) [NISOLDIPINE], the AC50 in [11] was over 10 µM; in [12], over 30 µM; in assay [9], over 10 µM; in assay [10], over 10 µM.
For `NS(=O)(=O)c1cc2c(cc1Cl)NCNS2(=O)=O` [HYDROCHLOROTHIAZIDE], the AC50 was over 30 µM in assay [11], over 30 µM in assay [12], over 10 µM in [9] and over 10 µM in [10].
For `NC(N)=Nc1nc(CSCCC(N)=NS(N)(=O)=O)cs1` [FAMOTIDINE], the AC50 in assay [11] is over 30 µM; in assay [12], over 30 µM; in [9] it was over 10 µM; in assay [10], over 10 µM.
Take `CC(N)Cc1ccccc1` (stereo not drawn) [AMPHETAMINE]: the half-maximal activity concentration (AC50) in [11] is over 30 µM; in assay [12], over 30 µM; in [9], over 10 µM; in assay [10] it was over 10 µM.
`NC1=NC(=O)C(c2ccccc2)O1` (stereo not drawn) [PEMOLINE]: the half-maximal activity concentration (AC50) in [11] is over 30 µM; in [9], over 10 µM; in assay [10], over 10 µM.
For `CCOC(=O)[C@H](CCc1ccccc1)N[C@@H](C)C(=O)N1CCC[C@H]1C(=O)O`, the half-maximal activity concentration (AC50) in assay [11] is over 30 µM; in [9], over 10 µM; in [10], over 10 µM.
On to `NC[C@H]1CC[C@H](C(=O)O)CC1` [TRANEXAMIC ACID], for which the AC50 in assay [11], in assay [12], in assay [9] and in assay [10] was over 10 µM each time.
For `C[C@H]1C[C@@H]2[C@H]([C@@H](O)C[C@@]3(C)[C@H]2CC[C@]3(O)C(=O)CO)[C@@]2(C)C=CC(=O)C=C12` [METHYLPREDNISOLONE], the concentration at half-maximal activity (AC50) in assay [11], in assay [9] and in assay [10] was over 10 µM each time.
Turning to `Cc1cccc(C)c1OCC(C)N` (stereo not drawn) [MEXILETINE], the AC50 in assay [11] and in [12] was over 30 µM each time.
Take `CN1CCCC(CN2c3ccccc3Sc3ccccc32)C1` (stereo not drawn) [MEPAZINE]: the AC50 in assay [1] was 8.25 µM; in [2], 9.78 µM; in [4], 22.3 µM; in [5] it was over 30 µM; in assay [6] it was over 30 µM; in assay [7], over 30 µM. Besides, in [8], the concentration at half-maximal activity (AC50) is over 10 µM.
Turning to `O=C(O)c1cc(-c2ccc(F)cc2F)ccc1O` [DIFLUNISAL], the AC50 in assay [11], in assay [12], in assay [9] and in [10] was over 10 µM each time.
Consider `CC(C)(C(=O)c1cccnc1)c1cccnc1` [METYRAPONE], for which the concentration at half-maximal activity (AC50) in [11], in assay [12], in [9] and in [10] was over 10 µM each time.
`CCC[C@@H]1C[C@@H](C(=O)N[C@@H]([C@H]2O[C@H](SC)[C@H](O)[C@@H](O)[C@H]2O)[C@H](C)Cl)N(C)C1` [CLINDAMYCIN]: the AC50 was over 30 µM in assay [11], over 30 µM in [12], over 10 µM in assay [9] and over 10 µM in [10].
Turning to `NC[C@H]1O[C@H](O[C@H]2[C@H](O)[C@@H](O[C@H]3O[C@H](CO)[C@@H](O)[C@H](N)[C@H]3O)[C@H](N)C[C@@H]2N)[C@H](O)[C@@H](O)[C@@H]1O` [KANAMYCIN], the AC50 is over 10 µM in assay [11], over 10 µM in [12], over 10 µM in assay [9] and over 30 µM in assay [10].
As to `CC[C@H](C)C(=O)O[C@H]1C[C@H](O)C=C2C=C[C@H](C)[C@H](CC[C@@H](O)C[C@@H](O)CC(=O)O)[C@H]21` [PRAVASTATIN], the AC50 in [9] and in assay [10] was over 10 µM throughout.

One may read the AC50 as the midpoint of the concentration-response curve, whichever way the signal moves. Low values mean greater potency, high ones weaker potency.
